Holding throughout (assay type): cell-based
Test [1] has as its target Sodium-dependent noradrenaline transporter (Homo sapiens, UniProt P23975). As to the kind of experiment: Inhibition of noradrenaline reuptake at human noradrenaline transporter expressed in HEK293 cells after 15 mins by scintillation counting.
The target of test [2] is Voltage-gated inwardly rectifying potassium channel KCNH2 (Homo sapiens, UniProt Q12809). The experiment in a line: Displacement of [3H]dofetilide from human ERG expressed in HEK293 cells.
For test [3], the target named is Sodium-dependent serotonin transporter (Homo sapiens, UniProt P31645). The experiment in a line: Inhibition of serotonin reuptake at human serotonin transporter expressed in HEK293 cells after 5 mins by scintillation counting.
The target of test [4] is Sodium-dependent dopamine transporter (Homo sapiens, UniProt Q01959). The experiment in a line: Inhibition of dopamine reuptake at human dopamine transporter expressed in HEK293 cells after 5 mins by scintillation counting.

Consider 23 compounds from ChEMBL document CHEMBL1156048, “Design and optimisation of selective serotonin re-uptake inhibitors with high synthetic accessibility: part 2” (Bioorg Med Chem Lett, 2009).

Sequence of Sodium-dependent serotonin transporter (P31645 whole entry): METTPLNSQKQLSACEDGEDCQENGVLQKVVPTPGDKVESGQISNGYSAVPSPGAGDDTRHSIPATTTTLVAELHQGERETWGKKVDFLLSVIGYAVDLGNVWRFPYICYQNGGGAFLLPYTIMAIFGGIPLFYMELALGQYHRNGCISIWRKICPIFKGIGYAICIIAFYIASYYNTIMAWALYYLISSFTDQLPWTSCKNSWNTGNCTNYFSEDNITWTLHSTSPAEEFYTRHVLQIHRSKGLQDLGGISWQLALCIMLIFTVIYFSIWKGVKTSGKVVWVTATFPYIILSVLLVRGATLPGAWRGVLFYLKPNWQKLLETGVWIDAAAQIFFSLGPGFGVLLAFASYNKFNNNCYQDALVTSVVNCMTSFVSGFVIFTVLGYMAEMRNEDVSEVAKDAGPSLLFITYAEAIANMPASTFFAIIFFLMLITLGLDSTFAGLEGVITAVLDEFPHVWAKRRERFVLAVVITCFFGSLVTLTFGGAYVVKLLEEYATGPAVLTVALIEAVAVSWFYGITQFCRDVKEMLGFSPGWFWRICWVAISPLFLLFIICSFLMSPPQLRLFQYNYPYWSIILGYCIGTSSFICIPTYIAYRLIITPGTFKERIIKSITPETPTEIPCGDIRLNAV
Sequence of Voltage-gated inwardly rectifying potassium channel KCNH2 (Q12809 whole entry): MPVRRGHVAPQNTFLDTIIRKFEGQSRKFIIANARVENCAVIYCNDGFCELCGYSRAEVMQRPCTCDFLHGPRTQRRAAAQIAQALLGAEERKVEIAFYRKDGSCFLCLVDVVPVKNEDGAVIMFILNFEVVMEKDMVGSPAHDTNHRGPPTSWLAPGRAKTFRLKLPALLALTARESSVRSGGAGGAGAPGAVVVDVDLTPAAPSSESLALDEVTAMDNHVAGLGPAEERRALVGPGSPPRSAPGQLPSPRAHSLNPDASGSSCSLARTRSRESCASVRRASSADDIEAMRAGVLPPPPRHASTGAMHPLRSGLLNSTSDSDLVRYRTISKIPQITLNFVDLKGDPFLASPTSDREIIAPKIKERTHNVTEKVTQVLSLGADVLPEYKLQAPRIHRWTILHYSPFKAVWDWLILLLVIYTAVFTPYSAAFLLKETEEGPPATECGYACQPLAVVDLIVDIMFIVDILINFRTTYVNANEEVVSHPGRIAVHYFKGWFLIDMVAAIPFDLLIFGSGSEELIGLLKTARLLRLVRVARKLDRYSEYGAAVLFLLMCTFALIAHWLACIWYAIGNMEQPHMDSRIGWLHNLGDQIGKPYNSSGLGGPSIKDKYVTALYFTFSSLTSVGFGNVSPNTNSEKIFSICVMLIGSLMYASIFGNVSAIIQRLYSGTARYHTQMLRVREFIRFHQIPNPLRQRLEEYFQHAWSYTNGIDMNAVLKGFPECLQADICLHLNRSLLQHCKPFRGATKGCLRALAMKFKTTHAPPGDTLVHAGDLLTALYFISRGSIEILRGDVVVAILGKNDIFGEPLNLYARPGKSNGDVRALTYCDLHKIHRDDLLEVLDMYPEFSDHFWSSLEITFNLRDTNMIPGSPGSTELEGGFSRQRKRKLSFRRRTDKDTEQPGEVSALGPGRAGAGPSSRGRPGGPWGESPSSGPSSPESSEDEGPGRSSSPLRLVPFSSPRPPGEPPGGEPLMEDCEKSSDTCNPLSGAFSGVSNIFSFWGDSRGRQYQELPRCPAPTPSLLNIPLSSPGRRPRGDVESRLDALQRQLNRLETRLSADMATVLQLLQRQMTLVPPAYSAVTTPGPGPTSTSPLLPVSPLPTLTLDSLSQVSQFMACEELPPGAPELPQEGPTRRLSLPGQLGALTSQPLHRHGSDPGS
Sequence of Sodium-dependent noradrenaline transporter (P23975 whole entry): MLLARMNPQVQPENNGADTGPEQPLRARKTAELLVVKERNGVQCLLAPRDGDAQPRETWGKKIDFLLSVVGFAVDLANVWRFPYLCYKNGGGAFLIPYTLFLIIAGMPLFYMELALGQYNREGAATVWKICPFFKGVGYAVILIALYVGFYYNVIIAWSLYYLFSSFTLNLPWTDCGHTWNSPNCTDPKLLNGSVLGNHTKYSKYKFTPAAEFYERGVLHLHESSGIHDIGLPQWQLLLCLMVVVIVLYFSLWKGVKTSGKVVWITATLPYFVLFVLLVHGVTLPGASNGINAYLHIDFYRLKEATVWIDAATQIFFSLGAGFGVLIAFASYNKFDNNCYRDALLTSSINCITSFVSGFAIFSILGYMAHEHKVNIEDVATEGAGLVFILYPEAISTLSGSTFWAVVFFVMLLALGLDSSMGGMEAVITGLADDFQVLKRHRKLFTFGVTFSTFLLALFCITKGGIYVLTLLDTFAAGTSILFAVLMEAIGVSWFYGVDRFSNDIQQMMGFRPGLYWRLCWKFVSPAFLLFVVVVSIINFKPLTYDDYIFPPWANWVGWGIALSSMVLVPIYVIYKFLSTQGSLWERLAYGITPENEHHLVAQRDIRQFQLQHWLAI
Sequence of Sodium-dependent dopamine transporter (Q01959 whole entry): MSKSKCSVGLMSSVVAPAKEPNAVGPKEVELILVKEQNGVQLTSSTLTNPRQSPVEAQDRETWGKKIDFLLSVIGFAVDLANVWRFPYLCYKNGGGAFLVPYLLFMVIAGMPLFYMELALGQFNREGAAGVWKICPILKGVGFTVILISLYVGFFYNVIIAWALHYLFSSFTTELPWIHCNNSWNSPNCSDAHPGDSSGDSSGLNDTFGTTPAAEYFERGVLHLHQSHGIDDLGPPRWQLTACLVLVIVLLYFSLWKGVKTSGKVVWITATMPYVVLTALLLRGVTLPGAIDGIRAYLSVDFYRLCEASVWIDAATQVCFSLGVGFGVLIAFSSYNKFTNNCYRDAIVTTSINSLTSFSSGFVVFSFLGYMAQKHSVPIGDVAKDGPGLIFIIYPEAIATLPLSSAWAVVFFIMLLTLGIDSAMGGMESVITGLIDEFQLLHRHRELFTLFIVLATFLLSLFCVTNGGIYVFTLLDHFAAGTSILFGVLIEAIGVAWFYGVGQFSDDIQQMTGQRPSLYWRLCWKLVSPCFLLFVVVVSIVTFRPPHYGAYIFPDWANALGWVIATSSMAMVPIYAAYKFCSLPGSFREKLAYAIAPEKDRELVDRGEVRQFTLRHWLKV

Consider `CC(=O)N(Cc1ccc2ccccc2c1)C1CCNCC1`, for which the IC50 came to 8900 nM in test [1], 4.5 nM in test [3] and 1500 nM in test [4]. This compound displayed a Ki in test [2] of over 20000 nM.
Regarding `c1ccc2cc(COC3CCNCC3)ccc2c1` [LITOXETINE], the results for the IC50 in test [1], in test [3] and in test [4] were 1400 nM, 5.9 nM and 6700 nM, respectively.
For the compound `O=C(NC1CCNCC1)c1ccc2ccccc2c1`, the IC50 in test [3] was over 400 nM.
`Cc1c(C(=O)N(CC(C)(C)C)[C@H]2CCNC2)ccc(Cl)c1Cl`: the IC50 is 357 nM in test [1], 15 nM in test [3] and over 28000 nM in test [4].
In the case of `CS(=O)(=O)N(Cc1ccc2ccccc2c1)[C@@H]1CCNC1`, the IC50 was 7000 nM in test [1], 17 nM in test [3] and over 68000 nM in test [4]. In test [2], this compound yielded a Ki of 4200 nM.
On to `CCCN(C(=O)c1ccc2ccccc2c1)C1CCNCC1`, for which the values for the IC50 in test [1], in test [3] and in test [4] were over 40000 nM, 28.3 nM and over 40000 nM, respectively.
As for `Cc1c(C(=O)N(C(C)C)[C@@H]2CCNC2)ccc(Cl)c1Cl`, the IC50 is 5700 nM in test [1], 7 nM in test [3] and over 40000 nM in test [4].
On to `CS(=O)(=O)N(Cc1ccc2ccccc2c1)[C@H]1CCNC1`, for which the IC50 in test [1] was 370 nM; in test [3] it was 3.5 nM; in test [4], 2800 nM. The compound further displayed a Ki in test [2] of 11000 nM.
Consider `CC(=O)N(Cc1ccc2ccccc2c1)[C@@H]1CCNC1`, for which the IC50 in test [1] is 726 nM; in test [3] it was 5.2 nM; in test [4], over 12000 nM.
Turning to `O=C(c1ccc2ccccc2c1)N(C1CCC1)C1CCNCC1`, the IC50 is over 40000 nM in test [1], 10 nM in test [3] and over 40000 nM in test [4]. This compound also had a Ki in test [2] of over 10000 nM.
Take `Cc1c(C(=O)N(C)[C@@H]2CCNC2)ccc(Cl)c1Cl`: the IC50 in test [3] was 58 nM.
As for `CC(C)N(C(=O)c1ccc2ccccc2c1)[C@@H]1CCNC1`, the results for the IC50 in test [1], in test [3] and in test [4] were 7500 nM, 15 nM and over 14000 nM, respectively.
As for `CCC(=O)N(Cc1ccc2ccccc2c1)[C@@H]1CCNC1`, the values for the IC50 in test [1], in test [3] and in test [4] were 224 nM, 2.4 nM and 266 nM, respectively.
Regarding `CN(C(=O)c1ccc(Cl)c(Cl)c1)[C@@H]1CCNC1`, the IC50 in test [3] was over 400 nM.
With `O=C(c1ccc2ccccc2c1)N(C1CCC1)[C@@H]1CCNC1`, the figures for the IC50 in test [1], in test [3] and in test [4] were 6000 nM, 9 nM and 5800 nM, respectively.
Turning to `c1cnc(N(Cc2ccc3ccccc3c2)C2CCNCC2)nc1`, the IC50 turned out to be 1200 nM in test [1], 10 nM in test [3] and 1300 nM in test [4].
The corresponding values for `O=C(c1ccc2ccccc2c1)N(C1CCCC1)[C@@H]1CCNC1` are 677 nM, 12 nM and 7400 nM.
The corresponding values for `CCN(C(=O)c1ccc(Cl)c(Cl)c1C)[C@@H]1CCNC1` are 17400 nM, 10 nM and over 40000 nM.
With `Cc1c(CN([C@@H]2CCNC2)S(C)(=O)=O)ccc2cc(F)ccc12`, the IC50 was 735 nM in test [1], 4.6 nM in test [3] and over 28000 nM in test [4]. In test [2], this compound came in with a Ki of 1600 nM.
Regarding `CS(=O)(=O)N(Cc1ccc2ccccc2c1)C1CCNCC1`, the IC50 in test [1] was 2500 nM; in test [3], 3.5 nM; in test [4], 4900 nM. Moreover, in test [2], the Ki stood at 3200 nM.
With `CC(C)CN(C(=O)c1ccc2ccccc2c1)[C@@H]1CCNC1`, the IC50 stood at 1200 nM in test [1] and 5 nM in test [3]. Moreover, in test [2], the Ki turned out to be 7000 nM.
For `CCC(=O)N(Cc1ccc2ccccc2c1)C1CCNCC1`, the IC50 in test [1] worked out at 1300 nM; in test [3], 1 nM; in test [4], 339 nM. This compound displayed a Ki in test [2] of 12000 nM.
On to `CC(C)CN(C(=O)c1ccc2ccccc2c1)[C@H]1CCNC1`, for which the IC50 is 24 nM in test [1], 3 nM in test [3] and 744 nM in test [4].
